The source of these data is US4970204A, “3-substituted nitro-steroid derivatives as 5-α-reductase inhibitors” (SmithKline Beecham Corporation, priority 1989, dated 1990).

What is called Ki is a measure of affinity in units of concentration, obtained from inhibition or displacement.

Read-outs that look alike come from different tables or passages of the source.

The assay concerns the target T1, human steroid 5-α-reductase (Homo sapiens, UniProt P31213).
T1 construct: Frozen human prostates were thawed and minced into small pieces; from tissue; host or cells: hyperplastic human prostate, washed 140,000×g particulate fraction
T1 sequence (P31213 1-254): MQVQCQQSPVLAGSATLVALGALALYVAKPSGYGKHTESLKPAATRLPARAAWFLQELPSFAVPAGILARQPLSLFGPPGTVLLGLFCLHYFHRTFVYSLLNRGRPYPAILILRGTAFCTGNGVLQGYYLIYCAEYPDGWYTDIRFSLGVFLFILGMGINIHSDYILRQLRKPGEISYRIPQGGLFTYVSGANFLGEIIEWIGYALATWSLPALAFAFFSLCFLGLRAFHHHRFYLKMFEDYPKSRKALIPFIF
As to the kind of experiment: inhibition of human steroid 5-α-reductase using tissue from hyperplastic human prostates. The format is biochemical. The procedure:
The tissue was homogenized in 3 to 5 volumes of 20 mM potassium phosphate, pH 6.5, buffer containing 0.33 M sucrose, 1 mM dithiothreitol, and 50 μM NADPH with a Brinkmann Polytron (Sybron Corporation, Westbury, N.Y.).
The resulting pellet was suspended in 20 mM potassium phosphate buffer, pH 6.5, containing 20% glycerol, 1 mM dithiothreitol, and 50 μM NADPH. The suspended particulate solution was stored at -80° C.
After incubating the solution at 37° C. for 20 to 30 minutes the reaction was quenched by the addition of 4 ml ethyl acetate and 0.25 μmol each of testosterone, dihydrotestosterone, androstanediol, and androstanedione as carriers. The organic layer was removed to a second test tube and evaporated to dryness in vacuo. […] The radiochemical content in the bands of the substrate and the products was determined with a BIOSCAN Imaging Scanner (Bioscan, Inc., Washington, D.C.). The percent of recovered radiolabel converted to product was calculated, from which enzyme activity was determined. All incubations were conducted such that no more than 12% of the substrate (testosterone) was consumed.
Assuming that the steroidal inhibitor is a competitive inhibitor against testosterone, a value for the inhibition constant (Ki) can be calculated from equation 1: […]

For `CC(C)N(C(=O)[C@H]1CC[C@H]2[C@@H]3CC[C@H]4C=C([N+](=O)[O-])CC[C@]4(C)[C@H]3CC[C@]12C)C(C)C` [17β-N,N-Diisopropylcarboxamide-3-nitro-5-α-androst-3-ene], the Ki (human prostatic particulate enzyme, [14C]-testosterone substrate, pH 5.0, 37° C., 20 to 30 minutes, Dixon plot, assuming competitive inhibition against testosterone, read-out: inhibition constant (Ki)) turned out to be 50 nM. The molecule `CC(C)N(C(=O)[C@H]1CC[C@H]2[C@@H]3CC[C@H]4CC([N+](=O)[O-])=CC[C@]4(C)[C@H]3CC[C@]12C)C(C)C` [2-ene analogue, 17β-N,N-diisopropylcarboxamide-3-nitro-5-α-androst-2-ene] had a Ki of 250 nM.
